The values that follow come from ChEMBL document CHEMBL3351512, “Studies on molecular properties prediction and histamine H3 receptor affinities of novel ligands with uracil-based motifs” (Eur J Med Chem, 2014).

Structures are written as SMILES.

In test [1] the target is Histamine H3 receptor (Homo sapiens, UniProt Q9Y5N1). As to the kind of experiment: Displacement of [3H]N-alpha-Methylhistamine from human recombinant H3 receptor expressed in HEK293 cells by competitive binding assay. Format: cell-based. On the technique in general: In a radioligand displacement assay an active substance lowers the binding of a labelled ligand.
Test [2] has as its target Histamine H3 receptor (Rattus norvegicus, UniProt Q9QYN8). As to the kind of experiment: Binding affinity to rat H3 receptor.

Histamine H3 receptor (Homo sapiens, UniProt Q9Y5N1), sequence (Q9Y5N1 whole entry): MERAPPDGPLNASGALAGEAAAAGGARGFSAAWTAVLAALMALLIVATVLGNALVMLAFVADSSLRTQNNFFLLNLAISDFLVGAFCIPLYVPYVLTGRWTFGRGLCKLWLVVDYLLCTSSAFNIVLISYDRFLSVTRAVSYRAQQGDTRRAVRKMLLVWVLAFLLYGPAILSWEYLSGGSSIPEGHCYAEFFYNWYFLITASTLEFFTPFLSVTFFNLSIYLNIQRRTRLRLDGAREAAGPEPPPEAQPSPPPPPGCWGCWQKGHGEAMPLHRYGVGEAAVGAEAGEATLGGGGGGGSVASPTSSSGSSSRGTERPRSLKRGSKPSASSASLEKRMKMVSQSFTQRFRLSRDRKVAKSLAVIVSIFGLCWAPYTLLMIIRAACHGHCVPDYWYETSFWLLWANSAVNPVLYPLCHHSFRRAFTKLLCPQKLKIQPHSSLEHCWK
Histamine H3 receptor (Rattus norvegicus, UniProt Q9QYN8), sequence (Q9QYN8 whole entry): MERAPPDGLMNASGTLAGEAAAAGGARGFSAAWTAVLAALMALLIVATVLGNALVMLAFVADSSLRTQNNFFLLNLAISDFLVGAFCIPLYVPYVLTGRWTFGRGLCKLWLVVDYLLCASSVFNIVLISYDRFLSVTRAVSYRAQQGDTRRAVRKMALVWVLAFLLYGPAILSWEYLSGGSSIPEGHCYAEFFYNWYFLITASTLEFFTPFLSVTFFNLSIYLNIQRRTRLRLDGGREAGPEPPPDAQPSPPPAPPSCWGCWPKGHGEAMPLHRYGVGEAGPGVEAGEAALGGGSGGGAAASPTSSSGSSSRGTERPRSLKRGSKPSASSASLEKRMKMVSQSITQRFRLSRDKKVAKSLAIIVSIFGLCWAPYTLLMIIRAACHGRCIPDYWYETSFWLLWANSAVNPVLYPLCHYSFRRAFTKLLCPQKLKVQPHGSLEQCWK

In the case of `O=c1ccn(CCCN2CCCCC2)c(=O)[nH]1`, the Ki in test [1] (read-out: pKi (converted)) is 7080 nM.

For the compound `O=C(c1ccccc1)n1c(=O)ccn(Cc2ccc(OCCCN3CCCCC3)cc2)c1=O`, the Ki in test [1] (read-out: pKi (converted)) is 7.24 nM.

With `CC(C)(C)OC(=O)n1ccc(=O)n(Cc2ccc(OCCCN3CCCCC3)cc2)c1=O`, the Ki in test [1] (read-out: pKi (converted)) is 50.1 nM.

As for `Cc1c(C)n(C(=O)OC(C)(C)C)c(=O)n(Cc2ccc(OCCCN3CCCCC3)cc2)c1=O`, in test [1] (read-out: pKi (converted)), the Ki was 38 nM.

For the compound `O=c1ccn(Cc2ccc(OCCCN3CCCCC3)cc2)c(=O)[nH]1`, in test [1] (read-out: pKi (converted)), the Ki is 12.9 nM.

Regarding `C[C@H]1CCCN1CCCOc1ccc(/C(CN2CCCCC2=O)=N/OC(C)(C)C)cc1`, the Ki in test [2] was < 100 nM.

On to `CCN1CCc2nc(OC3CCN(C4CCC4)CC3)ncc2C1=O`, for which the IC50 in test [1] was ≤ 50 nM.

For `Cc1cn(Cc2ccc(OCCCN3CCCCC3)cc2)c(=O)n(C(=O)c2ccccc2)c1=O`, the Ki in test [1] (read-out: pKi (converted)) was 31.6 nM.

Regarding `CC(C)N1CCCN(C(=O)C2CCN(c3ccc(C(F)(F)F)nc3)CC2)CC1`, in test [1] (read-out: pKi (converted)), the Ki is 0.126 nM.

For the compound `Cc1c(C)n(Cc2ccc(OCCCN3CCCCC3)cc2)c(=O)[nH]c1=O`, the Ki in test [1] (read-out: pKi (converted)) is 17.8 nM.

With `O=C(c1ccccc1)n1c(=O)ccn(CCCN2CCCCC2)c1=O`, the Ki in test [1] (read-out: pKi (converted)) is 1150 nM.

As to `Cc1cn(C(=O)OC(C)(C)C)c(=O)n(Cc2ccc(OCCCN3CCCCC3)cc2)c1=O`, the Ki in test [1] (read-out: pKi (converted)) was 46.8 nM.

Take `O=c1cccnn1-c1ccc2nc(N3CC[C@@H](N4CCCCC4)C3)sc2c1`: the Ki in test [1] (read-out: Ki) is < 25 nM.

For `Cc1c[nH]c(=O)n(Cc2ccc(OCCCN3CCCCC3)cc2)c1=O`, the Ki in test [1] (read-out: pKi (converted)) is 63.1 nM.

With `O=c1cc[nH]c(=O)n1Cc1ccc(OCCCN2CCCCC2)cc1`, in test [1] (read-out: pKi (converted)), the Ki was 28.8 nM.

`Cc1c(C)n(Cc2ccc(OCCCN3CCCCC3)cc2)c(=O)n(C(=O)c2ccccc2)c1=O`: the Ki in test [1] (read-out: pKi (converted)) is 34.7 nM.

On to `Cc1cn(Cc2ccc(OCCCN3CCCCC3)cc2)c(=O)[nH]c1=O`, for which the Ki in test [1] (read-out: pKi (converted)) is 7.08 nM.

A word on the IC50: it is the point on the concentration scale where inhibition reaches its midpoint.
